BindingDB's records for doi:10.1016/j.bmcl.2020.126965 (Australian National University, 2020)

Molecular target: Nonstructural protein 3 (Zika virus, UniProt A0A024AXB9)
Assay: Binding affinity to Zika virus NS2B-NS3 protease

Chain of Nonstructural protein 3 (A0A024AXB9 whole entry): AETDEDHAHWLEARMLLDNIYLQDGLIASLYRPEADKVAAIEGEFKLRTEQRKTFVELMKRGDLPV

CC1=CCC(C(=O)/N=C2\CC=C(S(=O)(=O)O)c3cc(S(=O)(=O)O)cc(S(=O)(=O)O)c32)=C/C1=N/C(=O)C1=CC=C/C(=N\C(=O)/N=C2\C=CC=C(C(=O)/N=C3/CC(C(=O)/N=C4\CC=C(S(=O)(=O)O)c5cc(S(=O)(=O)O)cc(S(=O)(=O)O)c54)=CC=C3C)C2)C1
EC50: 1930 nM
